pIC50: −log10 of the molar value.

The assay has as its target T1, TLR9 (Homo sapiens, UniProt Q9NR96).
T1 sequence (Q9NR96 26-1032): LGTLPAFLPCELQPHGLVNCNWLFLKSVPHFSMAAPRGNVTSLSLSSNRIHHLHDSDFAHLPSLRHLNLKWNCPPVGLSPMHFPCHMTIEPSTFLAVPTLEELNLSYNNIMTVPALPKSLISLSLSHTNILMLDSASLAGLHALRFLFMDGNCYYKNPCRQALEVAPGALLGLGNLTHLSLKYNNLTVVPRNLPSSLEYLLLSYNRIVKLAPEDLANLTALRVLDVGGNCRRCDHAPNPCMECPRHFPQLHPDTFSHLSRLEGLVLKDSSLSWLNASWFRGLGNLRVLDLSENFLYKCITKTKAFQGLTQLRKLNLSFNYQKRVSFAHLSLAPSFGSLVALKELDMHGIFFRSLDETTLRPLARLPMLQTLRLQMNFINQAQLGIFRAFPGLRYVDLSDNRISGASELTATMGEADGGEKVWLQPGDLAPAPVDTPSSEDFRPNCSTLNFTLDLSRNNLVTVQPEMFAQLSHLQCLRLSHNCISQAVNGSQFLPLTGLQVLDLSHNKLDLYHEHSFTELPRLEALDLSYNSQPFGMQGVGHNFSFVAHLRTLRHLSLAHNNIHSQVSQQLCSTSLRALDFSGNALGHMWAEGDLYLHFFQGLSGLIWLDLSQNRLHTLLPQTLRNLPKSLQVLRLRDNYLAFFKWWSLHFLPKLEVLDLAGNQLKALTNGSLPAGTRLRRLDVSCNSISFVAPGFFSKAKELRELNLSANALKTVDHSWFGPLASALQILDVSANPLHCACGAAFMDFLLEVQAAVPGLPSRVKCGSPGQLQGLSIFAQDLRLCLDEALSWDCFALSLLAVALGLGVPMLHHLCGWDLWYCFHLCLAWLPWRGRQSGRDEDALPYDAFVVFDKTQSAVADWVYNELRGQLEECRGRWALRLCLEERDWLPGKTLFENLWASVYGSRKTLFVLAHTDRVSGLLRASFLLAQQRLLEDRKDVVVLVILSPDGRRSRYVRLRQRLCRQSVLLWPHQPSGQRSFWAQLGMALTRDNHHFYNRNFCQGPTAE
The assay can be described thus: HEK293-Blue-hTLR-9 cells assay. The assay is classed as cell-based. As to conditions: HEK293-Blue-hTLR9 cells, ODN2006 stimulation, 20 hrs, SEAP reporter; read-out: HEK/hTLR9 IC50. Details: host or cells: HEK293 (HEK-Blue hTLR9). The text has this:
HEK293-Blue-hTLR-9 Cells Assay:
A stable HEK293-Blue-hTLR-9 cell line was purchased from InvivoGen (Cat. #: hkb-htlr9, San Diego, Calif., USA). These cells were originally designed for studying the stimulation of human TLR9 by monitoring the activation of NF-κB. A SEAP (secreted embryonic alkaline phosphatase) reporter gene was placed under the control of the IFN-β minimal promoter fused to five NF-κB and AP-1-binding sites. The SEAP was induced by activating NF-κB and AP-1 via stimulating HEK-Blue hTLR9 cells with TLR9 ligands. Therefore the reporter expression was declined by TLR9 antagonist under the stimulation of a ligand, such as ODN2006 (Cat. #: tlr1-2006-1, Invivogen, San Diego, Calif., USA), for incubation of 20 hrs. The cell culture supernatant SEAP reporter activity was determined using QUANTI-Blue™ kit (Cat. #: rep-01, Invivogen, San Diego, Calif., USA) at a wavelength of 640 nm, a detection medium that turns purple or blue in the presence of alkaline phosphatase.
HEK293-Blue-hTLR9 cells were incubated at a density of 250,000-450,000 cells/mL in a volume of 170 μL in a 96-well plate in Dulbecco's Modified Eagle's medium (DMEM) containing 4.5 g/L glucose, 50 U/mL penicillin, […], 2 mM L-glutamine, 10% (v/v) heat-inactivated fetal bovine serum with addition of 20 μL test compound in a serial dilution in the presence of final DMSO at 1% and 10 μL of 20 uM ODN2006 in above DMEM, perform incubation under 37° C. in a CO2 incubator for 20 hrs. Then 20 μL of the supernatant from each well was incubated with 180 μL Quanti-blue substrate solution at 37° C. for 2 h and the absorbance was read at 620-655 nm using a spectrophotometer. The signaling pathway that TLR9 activation leads to downstream NF-κB activation has been widely accepted, and therefore similar reporter assay was modified for evaluating TLR9 antagonist.
As for `C[C@@H]1CN(c2ccc(C#N)c3ncccc23)C[C@H](CN2CC(n3cc4c(n3)[C@H](C)CNC4)C2)O1` (single isomer, unassigned) [Example 25], the pIC50 is 7.09. For the compound `C[C@@H]1CN(c2ccc(C#N)c3ncccc23)C[C@H](CN2CC(n3cc4c(n3)[C@@H](C)CNC4)C2)O1` (single isomer, unassigned) [Example 26], the pIC50 is 7.05. Turning to `C[C@@H]1CN(c2ccc(C#N)c3ncccc23)C[C@H](CN2CC(n3ncc4c3CN[C@@H](C)C4)C2)O1` (single isomer, unassigned) [Example 27], the pIC50 was 7.19. As to `C[C@@H]1Cc2cnn(C3CN(C[C@H]4CN(c5ccc(C#N)c6ncccc56)C[C@@H](C)O4)C3)c2CN1` (single isomer, unassigned) [Example 28], the pIC50 was 7.15. For `C[C@@H]1CN(c2ccc(C#N)c3ncccc23)C[C@H](CN2CC(n3cc4c(n3)CN[C@@H](C)C4)C2)O1` (single isomer, unassigned) [Example 29], the pIC50 is 7.14.

Turning to `C[C@@H]1Cc2cn(C3CN(C[C@H]4CN(c5ccc(C#N)c6ncccc56)C[C@@H](C)O4)C3)nc2CN1` (single isomer, unassigned) [Example 30], the pIC50 was 7.24. With `C[C@@H]1CN(c2ccc(C#N)c3ncccc23)C[C@H](CN2CC(n3ncc4c3[C@@H](C)NCC4)C2)O1` (single isomer, unassigned) [Example 31], the pIC50 is 7.21.

As to `C[C@@H]1CN(c2ccc(C#N)c3ncccc23)C[C@H](CN2CC(n3ncc4c3[C@H](C)NCC4)C2)O1` (single isomer, unassigned) [Example 32], the pIC50 is 7.21. In the case of `C[C@@H]1CN(c2ccc(C#N)c3ncccc23)C[C@H](CN2CC(n3cc4c(n3)[C@@H](C)NCC4)C2)O1` (single isomer, unassigned) [Example 33], the pIC50 is 7.47. The value for `C[C@@H]1CN(c2ccc(C#N)c3ncccc23)C[C@H](CN2CC(n3cc4c(n3)[C@H](C)NCC4)C2)O1` (single isomer, unassigned) [Example 34] was 7.44. The value for `C[C@@H]1CN(c2ccc(C#N)c3ncccc23)C[C@H](CN2CC(n3ncc4c3CCNC4)C2)O1` [Example 1, 5-[(2R,6S)-2-methyl-6-[[3-(4,5,6,7-tetrahydropyrazolo[4,3-c]pyridin-1-yl)azetidin-1-yl]methyl]morpholin-4-yl]quinoline-8-carbonitrile] was 7.24; that for `C[C@@H]1CN(c2ccc(C#N)c3ncccc23)C[C@H](CN2CC(n3cc4c(n3)CCNC4)C2)O1` [Example 2, 5-[(2R,6S)-2-methyl-6-[[3-(4,5,6,7-tetrahydropyrazolo[4,3-c]pyridin-2-yl)azetidin-1-yl]methyl]morpholin-4-yl]quinoline-8-carbonitrile] was 7.18. `C[C@@H]1CN(c2ccc(C#N)c3ncccc23)C[C@H](CN2CC(n3ncc4c3CNCC4)C2)O1` [Example 3, 5-[(2R,6S)-2-methyl-6-[[3-(4,5,6,7-tetrahydropyrazolo[3,4-c]pyridin-1-yl)azetidin-1-yl]methyl]morpholin-4-yl]quinoline-8-carbonitrile]: the pIC50 was 7.29.

As for `C[C@@H]1CN(c2ccc(C#N)c3ncccc23)C[C@H](CN2CC(n3cc4c(n3)CNCC4)C2)O1` [Example 4, 5-[(2R,6S)-2-methyl-6-[[3-(4,5,6,7-tetrahydropyrazolo[3,4-c]pyridin-2-yl)azetidin-1-yl]methyl]morpholin-4-yl]quinoline-8-carbonitrile], the pIC50 was over 7.49. As to `C[C@@H]1CN(c2ccc(C#N)c3ncccc23)C[C@H](CN2CC(n3cc4c(n3)CN(C)CC4)C2)O1` [Example 5, 5-[(2R,6S)-2-methyl-6-[[3-(6-methyl-5,7-dihydro-4H-pyrazolo[3,4-c]pyridin-2-yl)azetidin-1-yl]methyl]morpholin-4-yl]quinoline-8-carbonitrile], the pIC50 is 6.86. The figure for `CCN1CCc2cnn(C3CN(C[C@H]4CN(c5ccc(C#N)c6ncccc56)C[C@@H](C)O4)C3)c2C1` [Example 6, 5-[(2S,6R)-2-[[3-(6-ethyl-5,7-dihydro-4H-pyrazolo[3,4-c]pyridin-1-yl)azetidin-1-yl]methyl]-6-methyl-morpholin-4-yl]quinoline-8-carbonitrile] is 6.82; for `CCN1CCc2cn(C3CN(C[C@H]4CN(c5ccc(C#N)c6ncccc56)C[C@@H](C)O4)C3)nc2C1` [Example 7, 5-[(2S,6R)-2-[[3-(6-ethyl-5,7-dihydro-4H-pyrazolo[3,4-c]pyridin-2-yl)azetidin-1-yl]methyl]-6-methyl-morpholin-4-yl]quinoline-8-carbonitrile] it is 6.94. For the compound `CC(C)N1CCc2cnn(C3CN(C[C@H]4CN(c5ccc(C#N)c6ncccc56)C[C@@H](C)O4)C3)c2C1` [Example 8, 5-[(2S,6R)-2-[[3-(6-isopropyl-5,7-dihydro-4H-pyrazolo[3,4-c]pyridin-1-yl)azetidin-1-yl]methyl]-6-methyl-morpholin-4-yl]quinoline-8-carbonitrile], the pIC50 was 6.90.

In the case of `CC(C)N1CCc2cn(C3CN(C[C@H]4CN(c5ccc(C#N)c6ncccc56)C[C@@H](C)O4)C3)nc2C1` [Example 9, 5-[(2S,6R)-2-[[3-(6-isopropyl-5,7-dihydro-4H-pyrazolo[3,4-c]pyridin-2-yl)azetidin-1-yl]methyl]-6-methyl-morpholin-4-yl]quinoline-8-carbonitrile], the pIC50 is 6.76. The figure for `C[C@@H]1CN(c2ccc(C#N)c3ncccc23)C[C@H](CN2CC(n3ncc4c3CNC4)C2)O1` [Example 10, 5-[(2S,6R)-2-[[3-(5,6-dihydro-4H-pyrrolo[3,4-c]pyrazol-1-yl)azetidin-1-yl]methyl]-6-methyl-morpholin-4-yl]quinoline-8-carbonitrile] is 6.84.

On to `C[C@@H]1CN(c2ccc(C#N)c3ncccc23)C[C@H](CN2CC(n3cc4c(n3)CNC4)C2)O1` [Example 11, 5-[(2S,6R)-2-[[3-(5,6-dihydro-4H-pyrrolo[3,4-c]pyrazol-2-yl)azetidin-1-yl]methyl]-6-methyl-morpholin-4-yl]quinoline-8-carbonitrile], for which the pIC50 is 7.31. The figure for `Cc1nn(C2CN(C[C@H]3CN(c4ccc(C#N)c5ncccc45)C[C@@H](C)O3)C2)c2c1CNCC2` [Example 12, 5-[(2R,6S)-2-methyl-6-[[3-(3-methyl-4,5,6,7-tetrahydropyrazolo[4,3-c]pyridin-1-yl)azetidin-1-yl]methyl]morpholin-4-yl]quinoline-8-carbonitrile] is 7.11; for `Cc1c2c(nn1C1CN(C[C@H]3CN(c4ccc(C#N)c5ncccc45)C[C@@H](C)O3)C1)CCNC2` [Example 13, 5-[(2R,6S)-2-methyl-6-[[3-(3-methyl-4,5,6,7-tetrahydropyrazolo[4,3-c]pyridin-2-yl)azetidin-1-yl]methyl]morpholin-4-yl]quinoline-8-carbonitrile] it is 6.93; for `Cc1nn(C2CN(C[C@H]3CN(c4ccc(C#N)c5ncccc45)C[C@@H](C)O3)C2)c2c1CN(C)CC2` [Example 14, 5-[(2S,6R)-2-[[3-(3,5-dimethyl-6,7-dihydro-4H-pyrazolo[4,3-c]pyridin-1-yl)azetidin-1-yl]methyl]-6-methyl-morpholin-4-yl]quinoline-8-carbonitrile] it is 6.56.
